# Laboratory results published in patent publication US11571413B2, “Nicotinamide riboside treatments of domesticated meat animals” (Kansas State University Research Foundation, priority 2017, dated 2023).
# Legend:
# finishing barrows = test: Finishing pig carcass measures and fabrication (Example IV); format: in vivo; details: 10 days
# Method: Seven days prior to the beginning of the experiment, 10 finishing barrows (initial BW 111.9±1.6 kg) were assigned to individual pens located at the East Finisher facility of the Kansas State University Swine Teaching and Research Center (Manhattan, Kans.). Each pen was 7.4 m^2 with a slatted floor, contained a nipple waterer and an individual dry feeder that allowed ad libitum access to food and water. Barrows were randomly assigned to 1 of 2 NR treatments, 0 or 30 mg/kg daily of NR mixed in Karo® syrup and administered by oral gavage. Barrows were administered their assigned treatment for 10 days, after which they were harvested under USDA inspection. Twenty-four hours after harvest, carcass measurements were taken by trained personnel, carcasses were fabricated into the 5 major wholesale cuts, and whole-boneless loins were vacuum packaged and aged for 10 days. Loin were cut into 3 chops with chop 1 being used for day-0 metmyoglobin reducing ability (MRA) analysis, chop 2 being used for day-4 MRA and oxygen consumption rate (OCR) analyses, and chop 3 for 8-day objective/subjective color evaluation and MRA and OCR analyses.
# growing pigs [1] = test: Longissimus lumborum muscle fiber distribution and succinate dehydrogenase staining (Example III); format: in vivo, pig; details: 30 mg/kg BW, 7 days; numerical
# Method: (§1) Nine growing pigs were blocked by bodyweight (BW) and placed in metabolism crates. After a 3-day acclimation period, pigs within each BW block were randomly assigned to a treatment (n=3 pigs/treatment). Treatments comprised pigs supplemented 0, 15, or 30 mg/kg BW NR for 7 days. Pigs were allowed ad libitum access to a standard growing diet and water. Treatments were administered daily at 8 a.m. by mixing NR in 20 mL of Karo® dark syrup and orally drenching the pigs. On day 0 and 3 of the trial, muscle biopsies of the LL were taken for NAD+ analysis using standard procedures. At day 7, pigs were transported to the Kansas State University Meats Laboratory and euthanized by a captive penetrating bolt to the brain, followed by exsanguination. Following harvest procedures, 3 g of the LL were collected for NAD+ analysis. Twenty-four hours after harvest, the whole LL not sampled at harvest was removed from the carcass and aged 10 days. After aging, the LL was cut into 6 chops for retail color stability analysis, including 6-day surface oxy- and metmyoglobin percentage, 6-day objective and subjective color panel evaluation, and day 4 and 6 metmyoglobin reducing ability (MRA).
# [2] = tested on: Fertilized broiler eggs (Cobb 500); test: Pectoralis major muscle fiber CSA and density by immunohistochemistry (Example VI); format: in vivo, chicken; details: hatched chicks
# Method: The methods of Noel et al. (2016) were followed for immunohistochemistry with modifications. The PM was removed from the tongue depressor, embedded in tissue embedding media (Fisher Scientific), cooled with isopentane chilled liquid nitrogen, and stored at −80° C. until cryosectioning. Ten micrometer-thick cryosections were cut using a Microm 550 cryostat (Thermo Fisher Scientific, Kalamazoo, Mich.) and six cryosection were collected on positively charged slides (Diamond White Glass; Globe Scientific Inc., Paramus, N.J.). Cryosections were incubated in a blocking solution containing 5% horse serum and 0.2% TritonX-100 in Phosphate Buffered Saline (PBS) for 30 min. Slides were incubated for 1 h at room temperature in a primary antibody solution consisting of blocking solution and 1:500 rabbit, α-dystrophin (Thermo Fisher Scientific). Cryosections were washed 3 times for 5 min each in PBS and incubated for an additional 30 min with blocking solution containing 1:1,000 Alexa-Flour 594 goat-anti-rabbit heavy and light chains (Life Technologies, Carlsbad, Calif.). Cryosections were washed again as stated above, 5 μl of 9:1 glycerol in PBS was placed on each section, and slides were coverslipped for imaging. Cryosections were visualized at 200× magnification using a Nikon Elipse TI-U inverted microscope (Nikon Instruments Inc., Melville, N.Y.), a Nikon DS-QiMC digital camera (Nikon Instruments Inc.) was used to photograph cryosections, and an average of 1,000 fibers were analyzed using NIS-Elements imaging software (Basic Research, 3.3; Nikon Instruments Inc.) to determine fiber cross-section area (CSA).
# finished market barrows = test: Semitendinosus muscle NAD+ content by HPLC (Example V); format: in vivo, pig; details: 30 mg/kg BW oral daily, 10 days
# Method: Fourteen days prior to harvest, 20 finished market barrows (initial body weight 268 pounds) were randomly assigned to 1 of 2 treatments: 0 or 30 mg/kg body weight of nicotinamide riboside, both orally administered daily in 20 ml of Karo® Syrup. Ten days prior to harvest, pigs were restrained via a snare and treatments were administered. On day 7, barrows were subjected to a performance test where they were walked around a track at 0.88 m/s until subjective fatigue was achieved. Three days following the performance test, barrows were harvested and a portion of the semitendinosus muscle was collected within 45 minutes. These samples were analyzed for NAD+ content via HPLC methodology.
# growing pigs [3] = test: Longissimus lumborum chop retail color stability, 6-day display (Example III); format: in vivo, pig; details: for Greater discoloration score of 0 mg/kg chops than NR chops: day 6 of display
# Method: as §1
# fertilized broiler eggs = test: Immunohistochemical analysis of muscle fiber CSA during in ovo myogenesis (Example 1); format: in vivo, chicken; details: 100 μl 250 mM NR in ovo at 11 d
# Method: At 11-days of incubation, 60 fertilized broiler eggs were randomly assigned to completely randomized design with a 2×2 factorial arrangement. Factor 1 comprised treatment, with eggs injected with 100 μl of 0.9% sterile saline solution (NRNeg) or 250 mM NR in sterile saline (NRPos). Factor 2 comprised injection location, with treatments injected into the yolk or albumen. Eggs were incubated at 37±3° C. and a relative humidity of 40±2% for 7 days. Humidity was increased to 60±2% at the same temperature for the final 3 days of incubation. Twenty-four hours after hatching, chicks were euthanized by exposure to CO2 and decapitation. Measurements including chick weight and left Pectoralis major weight, length, and depth were taken for analysis. Immunohistochemical analysis was conducted to determine if NR supplementation increased muscle fiber cross-sectional area (CSA) during in ovo myogenesis. There were no Treatment×Location or Treatment and Location main effects for muscle fiber CSA (P>0.06). […] This is desired heavily in meat producing animals.
smiles,measurement,setting,value
"NC(=O)c1ccc[n+]([C@@H]2O[C@H](CO)[C@@H](O)[C@H]2O)c1 [Nicotinamide riboside, nicotinamide riboside]",1st rib subcutaneous fat,finishing barrows; NR 30 mg/kg daily oral gavage,1.76 cm
same,10th rib subcutaneous fat,finishing barrows; NR 30 mg/kg daily oral gavage,0.95 cm
same,"Carcass fabrication, Belly",finishing barrows; NR 30 mg/kg daily oral gavage,7.93 kg
same,"Carcass fabrication, Boneless loin",finishing barrows; NR 30 mg/kg daily oral gavage,10.39 kg
same,"Carcass fabrication, Boston butt",finishing barrows; NR 30 mg/kg daily oral gavage,3.22 kg
same,"Carcass fabrication, Ham",finishing barrows; NR 30 mg/kg daily oral gavage,9.63 kg
same,"Carcass fabrication, Picnic shoulder",finishing barrows; NR 30 mg/kg daily oral gavage,4.42 kg
same,Carcass weight,finishing barrows; NR 30 mg/kg daily oral gavage,97.4 kg
same,Last lumbar subcutaneous fat,finishing barrows; NR 30 mg/kg daily oral gavage,0.83 cm
same,Last rib subcutaneous fat,finishing barrows; NR 30 mg/kg daily oral gavage,0.91 cm
same,Loin eye area,finishing barrows; NR 30 mg/kg daily oral gavage,7.3 in²
same,Marbling (National Pork Producers Council marbling score),"finishing barrows; NR 30 mg/kg, 1 = none and 10 = abundant",2.4
same,Color (National Pork Producers Council color score),"finishing barrows; NR 30 mg/kg, 1 = pale pinkish gray to white, 6 = dark purplish red",3.4
same,Muscle fiber distribution vs 0 mg/kg LL,growing pigs [1],less type 2B (glycolytic) fibers and more type 1 and 2A (oxidative) fibers
same,Succinate dehydrogenase staining in type 2B fibers vs other two treatments,growing pigs [1],more intense staining
same,PM fiber CSA,[2]; 250 mM NR in ovo at d 10,did not affect
same,Muscle fiber density vs saline in the albumen,[2]; 250 mM NR into albumen,not differ
same,Increase of PM fiber density,[2]; 250 mM NR into the yolk sac,45%
same,Muscle fiber density vs saline in the yolk,[2]; 250 mM NR into yolk,more
same,"Increase of NAD+ in the semitendinosus muscle (tendency, P=0.09)",finished market barrows,62%
same,Visual panel discoloration scores between treatments,"growing pigs [3]; 0, 15 and 30 mg/kg, days 1, 4 and 5 of display",did not differ
same,Less surface metmyoglobin accumulation than 0 mg/kg chops (tendency),"growing pigs [3]; 15 mg/kg BW, 7 days, LL chops, entire 6-day display",9%
same,Greater discoloration score of 0 mg/kg chops than NR chops,growing pigs [3]; 15 mg/kg,41%
same,Less discoloration than 0 mg/kg chops (tendency),"growing pigs [3]; 15 mg/kg, entire 6-day study",27%
same,More MRA than 0 mg/kg chops (tendency),"growing pigs [3]; 15 mg/kg, over the entire study",42%
same,Less surface metmyoglobin than 0 mg/kg chops,"growing pigs [3]; 30 mg/kg BW, 7 days, LL chops, entire 6-day display",14%
same,Greater discoloration score of 0 mg/kg chops than NR chops,growing pigs [3]; 30 mg/kg,39%
same,Less surface discoloration than 0 mg/kg chops,"growing pigs [3]; 30 mg/kg, entire 6-day study",30%
same,More metmyoglobin reducing ability (MRA) than 0 mg/kg chops,"growing pigs [3]; 30 mg/kg, over the entire study",64%
same,Surface discoloration of 0 mg/kg chops vs 15 and 30 mg/kg chops,growing pigs [3]; days 2 and 3 of display,tended to have more surface discoloration
same,Muscle fiber cross-sectional area (CSA),fertilized broiler eggs,did not increase
